Data from patent US10463610B2, “Composition comprising diacid derivatives and their use in the treatment of collagenic eye disorders” (THE UNIVERSITY OF LIVERPOOL, priority 2015, dated 2019).

System: pig corneas
Assay: Tensile test (stiffness) of pig corneas after treating whole eye globes with cross-linking solution
Conditions: Experiment 1: diacid/NHS/EDCI solution in PBS with excess EDCI, 30 minutes incubation at 37° C., n=3 (FIG. 1)
Text: Pig eyes were collected from the abattoir on the day of slaughter. They were brought to the laboratory and any remaining soft tissue was carefully dissected away leaving just globe and the small section of optic nerve. These were washed 3 times in PBS. A drop of fluorescein dye (1% diluted 1:10 in PBS) was applied to the cornea of each eye to evaluate the integrity of the corneal epithelium (as used in the clinic). The globes were then washed again in PBS 3 times.
The globes were mounted individually on Perspex rings and placed corneal side down in 6-well cell culture plates. This ensured that the eyes were balanced stably and that the corneal surface was exposed in a controlled manner to the cross-linking solution.
Dissolve 575 mg of NHS and 775 mg of EDCI in 22.5 ml of PBS. Dissolve 500 mg Sebacic acid (decanedioic acid) or 435 mg of Suberic acid (octanedioic acid) or 365 mg of Adipic acid (hexanedioic acid) in 2.5 ml of PBS. Add each diacid solution to 22.5 ml of NHS/EDCI solution.
Experiments 2 and 3 used a Molar ratio of […] of suberic:NHS:EDCI using 319 mg NHS, 430 mg EDCI and 241 mg suberic acid. NHS/EDCI dissolved first in 7.5 ml PBS and suberic acid dissolved in 7.5 ml PBS with the addition of 500 ul DMAE to aid solubility. The two solution were added to each other and made up to 15 ml if necessary.
Add diacid/NHS/EDCI solution (4-5 ml) to 3 eyes for each diacid and add PBS (4-5 ml) to 3 eyes as control. Incubate for 30 minutes at 37° C. After 30 minutes, wash off solution with PBS (5 times).
Add suberic acid/NHS/EDCI solution (4-5 ml) to 3 eyes and add PBS (4-5 ml) to 3 eyes as control. […]
Since the cross-linking chemistry is based on EDCI/NHS mediated chemistry, the individual active moieties being used (EDCI and NHS) in the treatment solution are chemically able to crosslink proteins. The ability at which the individual chemicals are able to increase the biomechanical property of the cornea was assessed. Corneas were prepared, the masses of all the chemicals were measured out, and the corneas were treated as described above. […]

| SMILES | increase in stiffness compared to the untreated control corneas [%] |
| --- | --- |
| O=C(O)CCCCCCCCC(=O)O [Sebacic acid, decanedioic acid] | 54.8 |
| O=C(O)CCCCC(=O)O [adipic acid, hexanedioic acid] | 63.6 |
| O=C(O)CCCCCCC(=O)O [suberic acid, octanedioic acid] | 84.9 |
